How the values were obtained:
TlFLU1L = test system: T1, TlFLU1L; assay: residual anthracene by UV absorbance at […] nm after ethyl acetate extraction; Michaelis-Menten fit; assay type: biochemical, Trichoderma lixii; conditions: no mediator; anthracene 50-400 mg/L, Na-acetate 50 mM pH 5, Tween 80 1%, 30 °C, laccase 3 U, 96 h
T1 construct: native secreted enzyme purified from anthracene-induced culture (ammonium sulfate, DEAE, Sephadex G-100); yellow laccase; 44 kDa by SDS-PAGE

TpFLU12L = test system: T2, TpFLU12L; assay: as above; assay type: biochemical, Talaromyces pinophilus; conditions: no mediator; anthracene 50-400 mg/L, Na-acetate 50 mM pH 5, Tween 80 1%, 30 °C, laccase 3 U, 96 h
T2 construct: native secreted enzyme purified from anthracene-induced culture (ammonium sulfate, DEAE, Sephadex G-100); blue laccase

Compound: c1ccc2cc3ccccc3cc2c1 [anthracene]
- Km (mg/L) / TlFLU1 (TlFLU1L): 173.2 ± 0.06 mg/L
- Km (mg/L) / TpFLU12 (TpFLU12L): 73.3 ± 0.07 mg/L
